# Assay results taken from patent publication US4642340A, “Stable compounds of glucosamine sulphate” (Rotta Research Laboratorium S.p.A., priority 1981, dated 1987).
# Where two headings read alike, the source gives them in different places.
# How the values were obtained:
# [1] = tested on: mice-embryo fibroblast; test: Stimulation of the production of soluble GAG in mice-embryo fibroblast cultures, uptake of ^35 S; format: cell-based, mice (strain C57 BL/6 stCrl); conditions: Mus musculus, Fibroblast, 24 h, read-out: Δ % over non-treated controls, soluble GAG
# Experimental: (§2) For this purpose, primary cultures of mice-embryo fibroblasts (strain C57 BL/6 stCrl) were prepared by mechanical and enzymatic dissociation (in Trypsin Versene mixture-Microbiological Associates) of the embryos taken from the mother on the 18th day of pregnancy. The culture medium is the Eagle medium modified by Dulbecco and supplemented with 15% of calf foetus serum. The incubation atmosphere consists of 5% of carbon dioxide in air at 37° C. 24 hours after innoculation, the medium is replaced by a new medium containing the drug under examination and the radioactive precursor (Na2^35 SO4) for the measurement of the synthesis both of soluble and tissue-bound GAG; the culture is left to incubate for a further 24 hours and then the culture medium (containing the soluble GAG) and fibroblasts (containing the tissue-bound GAG) are separated.
# (§3) The soluble GAG are isolated from the culture medium by precipitation with a solution of 5% trichloroacetic acid in ice-water while the fibroblast residues, containing the tissue-bound GAG, after repeated washings with physiological solutions, are dissolved in [sequence] or VERSENE.
# (§4) The quantity of ^35 S incorporated both in the soluble GAG and in the tissue-bound GAG are evaluated by the usual scintillation methods and expressed in cpm (counts per minute).
# (§5) The tests were carried out five times for each sample in order to allow the results to be evaluated statistically.
# [2] = tested on: mice-embryo fibroblast; test: Stimulation of the production of tissue-bound GAG in mice-embryo fibroblast cultures, uptake of ^35 S; format: cell-based, mice (strain C57 BL/6 stCrl); conditions: Mus musculus, Fibroblast, 24 h, read-out: Δ % over non-treated controls, tissue-bound GAG
# Experimental: as §2, §3, §4, §5
# [3] = tested on: granuloma from cotton pellets; test: Anti-inflammatory activity, granuloma induced by cotton pellets; format: in vivo, female albino rats of the Sprague Dawley strain; conditions: 4 days; for Average dry weight of the granuloma (average ± s.e.): in mg (unit assumed)
# Experimental: The test consists of evaluating the capacity of the substances under examination to inhibit the formation of granuloma following the subcutaneous implantation of extraneous bodies (in this case, cotton pellets). […] One group of animals was used as a control. […] After the subcutaneous implant of 2 cotton pellets each having a weight of 20 mg into the dorsal region, the animals were administered daily, for 4 consecutive days, with the substances under examination in the doses given above.
# [4] = Acute toxicity in mice; design: species or system Swiss NMRI mice; conditions: mouse, in vivo; for LD50 at 240 h: 10 days observation, read-out: DL50
# Text: Swiss NMRI mice having an average weight of 20±2 g, subdivided in groups of 10 animals (5 females and 5 males) were used for each dose and for each method of administration.
# The methods of administration were: oral by means of gastric probe, intramuscular and endovenous into the caudal vein.
# (§1) The observation time after administration was 10 days.
# [5] = Acute toxicity in rats; design: species or system Sprague Dawley albino rats; conditions: rat, in vivo; for LD50 at 240 h: 10 days observation, read-out: DL50
# Text: Sprague Dawley albino rats having an average weight of about 150 g, subdivided into groups of 10 animals (5 males and 5 females) were used for each dose and for each method of administration.
# The methods of administration were: oral by means of a gastric probe, intramuscular and endovenous into the caudal vein.
# as §1
# [6] = physchem; conditions: solid storage, Titre of glucosamine
# [7] = im, intramuscular, max. dose 3000 mg/kg
# [8] = iv, endovenous, max. dose 1500 mg/kg
smiles,measurement,setting,value
"N[C@H]1C(O)O[C@H](CO)[C@@H](O)[C@@H]1O.O=S(=O)(O)O (stereo partly shown) [Glucosamine sulphate, glucosamine sulphate]",activation at 10 µg/mL,[1],24.3%
same,activation at 50 µg/mL,[1],96%
same,activation at 100 µg/mL,[1],71.2%
same,activation at 10 µg/mL,[2],32.7%
same,activation at 50 µg/mL,[2],75.6%
same,activation at 100 µg/mL,[2],94.7%
same,% Inhibition of granuloma,[3]; 300 mg/kg/os daily,40.9%
same,Average dry weight of the granuloma (average ± s.e.),[3]; 300 mg/kg/os daily,91.2 ± 10.8
same,% Inhibition of granuloma,[3]; 600 mg/kg/os daily,54.1%
same,Average dry weight of the granuloma (average ± s.e.),[3]; 600 mg/kg/os daily,70.7 ± 7.9
same,LD50 at 240 h,"[4]; im, intramuscular",> 3000 mg/kg
same,mortality at 240 h,[4]; [7],0%
same,LD50 at 240 h,"[4]; iv, endovenous",> 1500 mg/kg
same,mortality at 240 h,[4]; [8],0%
same,LD50 at 240 h,[4]; oral,> 5000 mg/kg
same,mortality at 240 h,"[4]; oral, max. dose 5000 mg/kg",0%
same,LD50 at 240 h,"[5]; im, intramuscular",> 3000 mg/kg
same,mortality at 240 h,[5]; [7],0%
same,LD50 at 240 h,"[5]; iv, endovenous",> 1500 mg/kg
same,mortality at 240 h,[5]; [8],0%
same,LD50 at 240 h,[5]; oral,> 5000 mg/kg
same,mortality at 240 h,"[5]; oral, max. dose 5000 mg/kg",0%
same,Appearance,"15° C., 30% R.H., 0 days",1
same,Titre of glucosamine,"15° C., 30% R.H., 0 days",98.7%
same,Appearance,"15° C., 30% R.H., 7 days",1
same,Appearance,"15° C., 30% R.H., 15 days",1
same,Appearance,"15° C., 30% R.H., 30 days",1
same,Appearance,"15° C., 30% R.H., 60 days",1
same,Appearance,"15° C., 30% R.H., 120 days",2
same,Appearance,"15° C., 30% R.H., 360 days",2-3
same,Appearance,"15° C., 45% R.H., 0 days",1
same,Appearance,"15° C., 45% R.H., 7 days",1
same,Appearance,"15° C., 45% R.H., 15 days",1
same,Appearance,"15° C., 45% R.H., 30 days",1
same,Appearance,"15° C., 45% R.H., 60 days",2
same,Appearance,"15° C., 45% R.H., 120 days",4
same,Appearance,"15° C., 45% R.H., 360 days",6
same,Appearance,"15° C., 60% R.H., 0 days",1
same,Appearance,"15° C., 60% R.H., 3 days",1
same,Appearance,"15° C., 60% R.H., 6 days",3
same,Appearance,"15° C., 60% R.H., 12 days",5
same,Appearance,"15° C., 60% R.H., 24 days",6
same,Appearance,"15° C., 60% R.H., 36 days",6
same,Appearance,"15° C., 60% R.H., 48 days",6
same,Appearance,"25° C., 30% R.H., 0 days",1
same,Titre of glucosamine,"25° C., 30% R.H., 0 days",99.6%
same,Appearance,"25° C., 30% R.H., 7 days",1
same,Appearance,"25° C., 30% R.H., 15 days",1
same,Appearance,"25° C., 30% R.H., 30 days",1
same,Appearance,"25° C., 30% R.H., 60 days",2
same,Appearance,"25° C., 30% R.H., 120 days",3
same,Appearance,"25° C., 30% R.H., 360 days",4
same,Appearance,"25° C., 45% R.H., 0 days",1
same,Titre of glucosamine,"25° C., 45% R.H., 0 days",100.5%
same,Appearance,"25° C., 45% R.H., 3 days",1
same,Appearance,"25° C., 45% R.H., 6 days",1
same,Appearance,"25° C., 45% R.H., 12 days",2
same,Appearance,"25° C., 45% R.H., 24 days",3
same,Appearance,"25° C., 45% R.H., 36 days",5
same,Appearance,"25° C., 45% R.H., 48 days",6
same,Time to complete decomposition,"25° C., 60% R.H.",36 h
same,Appearance,"25° C., 60% R.H., 0 hours",1
same,Appearance,"25° C., 60% R.H., 2 hours",1
same,Appearance,"25° C., 60% R.H., 4 hours",1
same,Appearance,"25° C., 60% R.H., 8 hours",2
same,Appearance,"25° C., 60% R.H., 16 hours",3
same,Appearance,"25° C., 60% R.H., 24 hours",4
same,Appearance,"25° C., 60% R.H., 36 hours",6
same,Titre of glucosamine,"solid storage, 24 h",44.6%
same,Titre of glucosamine,"solid storage, 72 h",100.3%
same,Titre of glucosamine,"solid storage, 576 h",74.5%
same,Titre of glucosamine,"solid storage, 864 h",29.6%
same,remaining at 8 h,[6],95.8%
same,remaining at 16 h,[6],73.8%
same,remaining at 72 h,[6],98.4%
same,remaining at 168 h,[6],98.3%
same,remaining at 360 h,[6],100%
same,remaining at 720 h,[6],99.4%
same,remaining at 1440 h,[6],98.1%
